Counter-ions that a name gives are not always drawn. Like-named read-outs stand apart in the source and are kept apart here.
How the values were obtained:
Pseudomonas aeruginosa [1] = test: In vitro bactericidal synergism, broth dilution checkerboard; type: cell-based; details: for MBC: Pseudomonas aeruginosa, drug alone
[2] = tested on: Pseudomonas aeruginosa A9843A; type: in vivo, mice; details: intramuscular, mice; as effective as combination 1.25 mg./kg. BL-P1908 + 2 mg./kg. amikacin
Pseudomonas aeruginosa [3] = details: prior art; cited from earlier work

Structure (SMILES): NCC[C@H](O)C(=O)N[C@@H]1C[C@H](N)[C@@H](O[C@H]2O[C@H](CN)[C@@H](O)[C@H](O)[C@H]2O)[C@H](O)[C@H]1O[C@H]1O[C@H](CO)[C@@H](O)[C@H](N)[C@H]1O [Amikacin, 1-[L-(-)-γ-amino-α-hydroxybutryl]kanamycin A]
- MBC (Pseudomonas aeruginosa [1]; strain A20552, read-out: Minimum Bactericidal Concentration): 8 µg/mL
- MBC (Pseudomonas aeruginosa [1]; strain A21509, read-out: Minimum Bactericidal Concentration): 125 µg/mL
- MBC (Pseudomonas aeruginosa [1]; strain A21510, read-out: Minimum Bactericidal Concentration): 64 µg/mL
- strain sensitivity (Pseudomonas aeruginosa [1]; strain A9843A): sensitive
- strain sensitivity (Pseudomonas aeruginosa [1]; strain A20480): sensitive
- strain sensitivity (Pseudomonas aeruginosa [1]; strain A20552): sensitive
- strain sensitivity (Pseudomonas aeruginosa [1]; strain A20620): resistant
- strain sensitivity (Pseudomonas aeruginosa [1]; strain A21509): resistant
- strain sensitivity (Pseudomonas aeruginosa [1]; strain A21510): resistant
- equally effective dosage, drug alone [2]: 8 mg/kg

Structure (SMILES): NCC[C@H](O)C(=O)N[C@@H]1C[C@H](N)[C@@H](O[C@H]2O[C@H](CN)[C@@H](O)[C@H](O)[C@H]2O)[C@H](O)[C@H]1O[C@H]1O[C@H](CO)[C@@H](O)[C@H](N)[C@H]1O [amikacin sulfate]
- MBC (Pseudomonas aeruginosa [1]; read-out: Minimum Bactericidal Concentration, strain A9843A): 4 µg/mL

Structure (SMILES): CC1(C)S[C@@H]2[C@H](NC(=O)C(c3ccccc3)S(=O)(=O)O)C(=O)N2[C@H]1C(=O)O (stereo partly shown) [sulbenicillin]
- potency against Pseudomonas aeruginosa (Pseudomonas aeruginosa [3]): relatively low potency

Structure (SMILES): CC1(C)S[C@@H]2[C@H](NC(=O)[C@H](C(=O)O)c3ccsc3)C(=O)N2[C@H]1C(=O)O [ticarcillin]
- potency against Pseudomonas aeruginosa (Pseudomonas aeruginosa [3]): relatively low potency
